What all share (test): DTP human tumour cell line panel, 48 h
Assay [1] has as its system MOLT-4 leukemia.
Assay [2] has as its system IGROV1 ovarian.
Assay [3] deals with 786-0 renal.
Assay [4] concerns EKVX NSCLC.
Assay [5] concerns HCC-2998 colon.
Assay [6] has as its system HCT-15 colon.
Assay [7] concerns SK-MEL-28 melanoma.
Assay [8] relates to OVCAR-3 ovarian.
Assay [9] has as its system NCI-H226 lung.
For assay [10], the system named is CCRF-CEM leukemia.

SMILES strings stand for the structures. Several values for one entry are separate records, joined by “and”; a condition that tells them apart may be missing. Equal values may be shown once.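 Assay format: 96-well plates, 48-hour exposure. GI50 is the concentration that inhibits growth by half. TGI marks complete inhibition of growth.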

The term GI50 denotes the concentration at which growth is held to half of that of the control. The TGI is the concentration at which net growth stops. A low value points to more potent growth arrest. `CCCCNCCCNCCCNC(=O)c1csc(-c2csc(CCNC(=O)C(NC(=O)C(C)C(O)C(C)NC(=O)C(NC(=O)c3nc(C(CC(N)=O)NCC(N)C(N)=O)nc(N)c3C)C(OC3OC(CO)C(O)C(O)C3OC3OC(CO)C(O)C(OC(N)=O)C3O)c3cnc[nH]3)C(C)O)n2)n1` (stereo not drawn): the GI50 is 1.22 µM in [1]; 20.9 µM in assay [2]; 1.46 µM in assay [3]; greater than 50 µM in assay [4]; 15.9 µM in [5]; 2.12 µM in assay [6]. Besides, the GI50 was greater than 50 µM in [7], 30.3 µM in assay [8], 0.477 µM in [9] and 6.4 µM in [10]. Further, the TGI was 50 µM and > 27.1 µM in assay [1]; 50 µM and > 84 µM in assay [2]; 50 µM and 5.24 µM in assay [3]; > 50 µM and 61.8 µM in assay [4]; 50 µM and > 100 µM in assay [5]; greater than 75.7 µM in assay [7]. For the same compound, the total growth inhibition concentration (TGI) in [8] was 50 µM and 22.9 µM; in assay [10], 50 µM and > 100 µM.
For the compound `CCOc1ccc(NC(=O)CC2SC(=Nc3ccc(C)cc3C)NC2=O)cc1` (stereo not drawn), the TGI is 65 µM in assay [1]; greater than 100 µM in assay [2]; greater than 100 µM in [3]; greater than 100 µM in [4]; greater than 100 µM in assay [5]; greater than 100 µM in assay [6]. For the same compound, the TGI in [7], in assay [8], in [9] and in [10] was greater than 100 µM throughout.
Regarding `CN(Cc1cnc2nc(N)nc(N)c2n1)c1ccc(C(=O)N[C@@H](CCS(=O)(=O)O)C(=O)O)cc1`, the TGI in [1], in assay [2], in assay [3], in assay [4], in [5] and in assay [6] was greater than 100 µM in each case. Besides, the TGI in assay [7], in assay [8], in [9] and in [10] was greater than 100 µM throughout. Also, the GI50 in [3] was 0.0955 µM.
As to `NC(=S)N/N=C/c1ncccc1O`, the GI50 in assay [1] is 1.76 µM; in assay [2], 2.88 µM; in assay [3], 0.348 µM; in [4], 8.58 µM; in assay [5], 3.08 µM; in [6] it was 2.67 µM. Moreover, the GI50 in assay [7] is 5.86 µM; in assay [8] it was 2.77 µM; in assay [9] it was 4.3 µM; in [10], 1.15 µM. Moreover, the total growth inhibition concentration (TGI) was 33.2 µM and 42.7 µM in assay [1]; > 96.7 µM and 380 µM in assay [2]; 20.3 µM and 8.34 µM in assay [3]; > 92.8 µM and 28.1 µM in assay [4]; > 42.3 µM and 166 µM in assay [5]; greater than 439 µM in assay [6]. The TGI in assay [7] was greater than 1000 µM; in [8] it was > 59.3 µM and 123 µM; in [9], 18 µM and 122 µM; in assay [10], 21.8 µM.
Regarding `CN(C)CCNC(=O)Cc1ccccc1Nc1c(Cl)cccc1Cl`, the TGI was found to be 36.7 µM in assay [1]; 38.4 µM in assay [2]; 25.7 µM in assay [3]; 43 µM in [4]; 24.7 µM in assay [5]; 29.6 µM in [6]. Moreover, the total growth inhibition concentration (TGI) in assay [7] is 33.7 µM; in assay [8], 36.1 µM; in assay [9] it was 34.3 µM; in assay [10], 34 µM.
Turning to `c1ccc2c(c1)CCc1c(-c3ccncc3)n[nH]c1-2`, the total growth inhibition concentration (TGI) in assay [1] was 85.4 µM; in assay [2], 89.2 µM; in [3], greater than 100 µM; in assay [4], 75.5 µM; in [5] it was 94.2 µM; in assay [6] it was 87.4 µM. The concentration for total growth inhibition (TGI) in [7] came out at 62.8 µM; in assay [8], 33.3 µM; in assay [9], 55.6 µM; in [10] it was 61.7 µM.
Consider `COc1ccc(/C=C\c2cc(OC)c(OC)c(OC)c2)cc1OCC(=O)O`, for which the TGI in assay [1] was greater than 100 µM; in [2], greater than 100 µM; in [3] it was greater than 100 µM; in assay [4], greater than 100 µM; in assay [5], greater than 100 µM; in assay [6] it was 80.8 µM. The TGI in assay [7] was greater than 100 µM; in [8] it was 8.25 µM; in [9] it was 48.2 µM; in assay [10], greater than 100 µM.
Take `O=C(Nc1ncc(Cc2cccc(C(F)(F)F)c2)s1)c1ccc2c(c1)OCCO2`: the GI50 in assay [1] is 0.67 µM; in assay [2] it was 0.4 µM; in assay [3], 0.576 µM; in assay [4], 0.602 µM; in [5], 0.337 µM; in assay [6], 0.139 µM. Further, the GI50 in assay [7] is 1.54 µM; in [8], 0.223 µM; in [9] it was 0.827 µM; in assay [10] it was 0.411 µM. Further, the TGI in assay [1] is greater than 100 µM; in assay [2] it was greater than 100 µM; in assay [3], greater than 100 µM; in [4] it was greater than 100 µM; in assay [5] it was 17.5 µM; in assay [6], greater than 100 µM. Also, the TGI in assay [7] was greater than 100 µM; in [8], 0.629 µM; in assay [10], greater than 100 µM.
For the compound `CO[C@@H]1CC[C@]2(C)OC[C@H](C)[C@@H]3C[C@@H](C)[C@@H](OC(C)=O)[C@@H]4[C@H]3[C@@H]2O[C@H]4C[C@@]1(C)O`, the GI50 in assay [1], in assay [2], in assay [3], in assay [4], in [5] and in assay [6] was greater than 100 µM in each case. For the same compound, the GI50 is greater than 100 µM in assay [7], 78.1 µM in assay [8], greater than 100 µM in assay [9] and greater than 100 µM in assay [10]. Besides, the total growth inhibition concentration (TGI) in [1], in assay [2], in assay [3], in assay [4], in [5] and in assay [6] was greater than 100 µM in each case. For the same compound, the TGI in assay [7], in [8], in assay [9] and in [10] was greater than 100 µM each time.
For the compound `O=C1C=C(Nc2ccc(Cl)cc2C(=O)c2ccccc2)c2ccccc2C1=O`, the TGI in assay [1], in assay [2], in assay [3], in assay [4], in [5] and in assay [6] was greater than 100 µM throughout. The TGI in assay [7], in [8], in assay [9] and in [10] was greater than 100 µM in each case.

The values above are taken from PubChem BioAssay (NCI).
